Data as given in patent US7973033B2, “Multi-cyclic cinnamide derivatives” (Eisai R&D Management Co., Ltd., priority 2006, dated 2011).

tested on: Aβ 42 production; assay: Quantification of Aβ Peptide in Culture of Neurons from Rat Fetus Brain; assay type: cell-based; settings: Neuron, 72 h; rat primary neuronal culture (cerebral cortex, embryonic day 18 Wistar rats); medium collected three days after addition of the compound; Aβ ELISA; read-out: Effect of reducing Aβ 42 production IC50
Experimental: Quantification of Aβ Peptide in Culture of Neurons from Rat Fetus Brain
(1) Rat Primary Neuronal Culture
Primary neuronal cultures were prepared from the cerebral cortex of embryonic day 18 Wistar rats (Charles River Japan, Yokohama, Japan). Specifically, the embryos were aseptically removed from pregnant rats under ether anesthesia. The brain was isolated from the embryo and immersed in an ice-cold L-15 medium (Invitrogen Corp. Cat #11415-064, Carlsbad, Calif., USA, or SIGMA L1518, for example). The cerebral cortex was collected from the isolated brain under a stereoscopic microscope. The cerebral cortex fragments collected were enzymatically treated in an enzyme solution containing 0.25% trypsin (Invitrogen Corp. Cat #15050-065, Carlsbad, Calif., USA) and 0.01% DNase (Sigma D5025, St. Louis, Mo., USA) at 37° C. for 30 minutes to disperse the cells. Here, the enzymatic reaction was stopped by adding inactivated horse serum to the solution. The enzymatically treated solution was centrifuged at 1,500 rpm for five minutes to remove the supernatant. 5 to 10 ml of a medium was added to the resulting cell mass. Neurobasal medium (Invitrogen Corp. Cat #21103-049, Carlsbad, Calif., USA) supplemented with 2% B27 supplement (Invitrogen Corp. Cat #17504-044, Carlsbad, Calif., USA), 25 μM 2-mercaptoethanol (2-ME, WAKO Cat #139-06861, Osaka, Japan), 0.5 mM L-glutamine (Invitrogen Corp. Cat #25030-081, Carlsbad, Calif., USA), and Antibiotics-Antimycotics (Invitrogen Corp. Cat #15240-062, Carlsbad, Calif., USA) was used as the medium (Neurobasal/B27/2-ME). However, the above Neurobasal medium not supplemented with 2-ME (Neurobasal/B27) was used for the assay. The cells were redispersed by mild pipetting of the cell mass to which the medium was added. The cell dispersion was filtered through a 40-μm nylon mesh (Cell Strainer, Cat #35-2340, Becton Dickinson Labware, Franklin Lakes, N.J., USA) to remove the remaining cell mass, and thus a neuronal cell suspension was obtained. The neuronal cell suspension was diluted with the medium and then plated in a volume of 100 μl/well at an initial cell density of 5×10^5 cells/cm^2 in a 96-well polystyrene culture plate pre-coated with poly-L or D-lysine (Falcon Cat #35-3075, Becton Dickinson Labware, Franklin Lakes, N.J., USA coated with poly-L-lysine using the method shown below, or BIOCOAT™ cell environments Poly-D-lysine cell ware 96-well plate, Cat #35-6461, Becton Dickinson Labware, Franklin Lakes, N.J., USA). Poly-L-lysine coating was carried out as follows. 100 μg/ml of a poly-L-lysine (SIGMA P2636, St. Louis, Mo., USA) solution was aseptically prepared with a 0.15 M borate buffer (pH 8.5). 100 μl/well of the solution was added to the 96-well polystyrene culture plate and incubated at room temperature for one or more hours or at 4° C. overnight or longer. The coated 96-well polystyrene culture plate was washed with sterile water four or more times, and then dried or rinsed with, for example, sterile PBS or medium, and used for cell plating. The plated cells were cultured in the culture plate at 37° C. in 5% CO2-95% air for one day. Then, the total amount of the medium was replaced with a fresh Neurobasal™/B27/2-ME medium, and then the cells were cultured for further three days.
The drug was added to the culture plate on Day 4 of culture as follows. The total amount of the medium was removed from the wells, and 180 μl/well of Neurobasal medium not containing 2-ME and containing 2% B-27 (Neurobasal/B27) was added thereto. A solution of the test compound in dimethyl sulfoxide (hereinafter abbreviated as DMSO) was diluted with Neurobasal/B27 at 10-fold of the final concentration. 20 μl/well of the dilution was added to and sufficiently mixed with the medium. The final DMSO concentration was 1% or less. Only DMSO was added to the control group.
The cells were cultured for three days after addition of the compound, and the total amount of the medium was collected. […]

Going from `COc1cc(/C=C/c2nc3n(n2)CCOC3c2ccc(Br)cc2)ccc1-n1cnc(C)c1` (single isomer, unassigned; (-)) [Example 143, (−)-8-(4-bromophenyl)-2-{(E)-2-[3-methoxy-4-(4-methyl-1H-imidazol-1-yl)phenyl]vinyl}-5,6-dihydro-8H-[1,2,4]triazolo[5,1-c][1,4]oxazine] to `COc1cc(/C=C/c2nc3n(n2)CCO[C@H]3c2ccc(C)cc2)ccc1-n1cnc(C)c1` (single isomer, unassigned) [Example 138, (−)-2-{(E)-2-[3-methoxy-4-(4-methyl-1H-imidazol-1-yl)phenyl]vinyl}-8-p-tolyl-5,6-dihydro-8H-[1,2,4]triazolo[5,1-c][1,4]oxazine], the IC50 rises from 22 nM to 47 nM (2.1-fold).

First: COc1ccc([C@@H]2CCCn3nc(/C=C/c4ccc(-n5cnc(C)c5)c(OC)c4)nc32)cc1 (single isomer, unassigned) [Example 75, (−)-2-{(E)-2-[3-methoxy-4-(4-methyl-1H-imidazol-1-yl)phenyl]vinyl}-8-(4-methoxyphenyl)-5,6,7,8-tetrahydro-[1,2,4]triazolo[1,5-a]pyridine]
Second: COc1cc(/C=C/c2nc3n(n2)CCCC3c2ccc(C)cc2)ccc1-n1cnc(C)c1 (single isomer, unassigned) [Example 151, (−)-2-{(E)-2-[3-methoxy-4-(4-methyl-1H-imidazol-1-yl)phenyl]vinyl}-8-p-tolyl-5,6,7,8-tetrahydro[1,2,4]triazolo[1,5-a]pyridine]
The IC50 of the first is 2.8-fold higher: 45 nM for the first, 16 nM for the second.

Compared with `COc1cc(/C=C/c2nc(-c3ccccc3)c[nH]2)ccc1-n1cnc(C)c1` [Example 4, 2-{(E)-2-[3-methoxy-4-(4-methyl-1H-imidazol-1-yl)phenyl]vinyl}-4-phenyl-1H-imidazole], `COc1cc(/C=C/c2nc(-c3ccc(F)cc3)c[nH]2)ccc1-n1cnc(C)c1` [Example 1, 4-(4-fluorophenyl)-2-{(E)-2-[3-methoxy-4-(4-methyl-1H-imidazol-1-yl)phenyl]vinyl}-1H-imidazole] is 1.7-fold lower in IC50: 76 nM for the first, 45 nM for the second. The second is the more potent here.

Going from `COc1cc(/C=C/c2nc3n(n2)CCC[C@@H]3c2c(F)cc(F)cc2F)ccc1-n1cnc(C)c1` (single isomer, unassigned) [Example 64, (−)-2-{(E)-2-[3-methoxy-4-(4-methyl-1H-imidazol-1-yl)phenyl]vinyl}-8-(2,4,6-trifluorophenyl)-5,6,7,8-tetrahydro[1,2,4]triazolo[1,5-a]pyridine] to `COc1cc(/C=C/c2nc3n(n2)CCCC3c2ccc(F)cc2)ccc1-n1cnc(C)c1` (single isomer, unassigned) [Example 52, (−)-8-(4-fluorophenyl)-2-{(E)-2-[3-methoxy-4-(4-methyl-1H-imidazol-1-yl)phenyl]vinyl}-5,6,7,8-tetrahydro[1,2,4]triazolo[1,5-a]pyridine], the IC50 falls from 28 nM to 14 nM (2-fold). The second is the more potent here.

Compared with `COc1cc(/C=C/c2nc(C(C)c3ccccc3)n(C)n2)ccc1-n1cnc(C)c1` (stereo not drawn) [Example 45, 3-{(E)-2-[3-methoxy-4-(4-methyl-1H-imidazol-1-yl)phenyl]vinyl}-1-methyl-5-(1-phenylethyl)-1H-[1,2,4]triazole], `COc1cc(/C=C/c2nc3n(n2)CCC[C@H]3c2ccccc2Br)ccc1-n1cnc(C)c1` (single isomer, unassigned) [Example 174, (−)-8-(2-bromophenyl)-2-{(E)-2-[3-methoxy-4-(4-methyl-1H-imidazol-1-yl)phenyl]vinyl}-5,6,7,8-tetrahydro[1,2,4]triazolo[1,5-a]pyridine] is 3.7-fold lower in IC50: 85 nM for the first, 23 nM for the second.

First: COc1cc(/C=C/c2nc3n(n2)CCC[C@@H]3c2ccc(OC(F)(F)F)cc2)ccc1-n1cnc(C)c1 [Example 129, (−)-2-{(E)-2-[3-methoxy-4-(4-methyl-1H-imidazol-1-yl)phenyl]vinyl}-8-(4-trifluoromethoxyphenyl)-5,6,7,8-tetrahydro[1,2,4]triazolo[1,5-a]pyridine]
Second: COc1cc(/C=C/c2nc3n(n2)CCC[C@]3(O)c2ccc(C)cc2)ccc1-n1cnc(C)c1 (single isomer, unassigned) [Example 155, (−)-2-{(E)-2-[3-methoxy-4-(4-methyl-1H-imidazol-1-yl)phenyl]vinyl}-8-p-tolyl-5,6,7,8-tetrahydro[1,2,4]triazolo[1,5-a]pyridin-8-ol]
The IC50 of the first is 2.3-fold lower: 17 nM for the first, 39 nM for the second. The first is the more potent here.

`COc1cc(/C=C/c2nc3n(n2)CCC[C@@H]3c2cc(F)c(F)c(F)c2)c(F)cc1-n1cnc(C)c1` (single isomer, unassigned) [Example 69, (−)-2-{(E)-2-[2-fluoro-5-methoxy-4-(4-methyl-1H-imidazol-1-yl)phenyl]vinyl}-8-(3,4,5-trifluorophenyl)-5,6,7,8-tetrahydro[1,2,4]triazolo[1,5-a]pyridine] and `COc1cc(/C=C/c2nc3n(n2)CCO[C@H]3c2cc(F)c(F)c(F)c2)ccc1-n1cnc(C)c1` (single isomer, unassigned) [Example 77, (−)-2-{(E)-2-[3-methoxy-4-(4-methyl-1H-imidazol-1-yl)phenyl]vinyl}-8-(3,4,5-trifluorophenyl)-5,6-dihydro-8H-[1,2,4]triazolo[5,1-c][1,4]oxazine] are within 1.5-fold of each other in IC50: 74 nM for the first, 83 nM for the second.

`COc1cc(/C=C/c2nc(-c3ccc(F)cc3)c3n2CCN(C)C3)ccc1-n1cnc(C)c1` [Example 15, 1-(4-fluorophenyl)-3-{(E)-2-[3-methoxy-4-(4-methyl-1H-imidazol-1-yl)phenyl]vinyl}-7-methyl-5,6,7,8-tetrahydroimidazo[1,5-a]pyrazine] and `COc1cc(/C=C/c2nc(-c3ccc(F)cc3)c3n2CCNC3=O)ccc1-n1cnc(C)c1` [Example 10, 1-(4-fluorophenyl)-3-{(E)-2-[3-methoxy-4-(4-methyl-1H-imidazol-1-yl)phenyl]vinyl}-6,7-dihydro-5H-imidazo[1,5-a]pyrazin-8-one] are within 1.5-fold of each other in IC50: 180 nM for the first, 130 nM for the second.

Compared with `COc1cc(/C=C/c2nnc(C(C)c3ccc(F)cc3)[nH]2)ccc1-n1cnc(C)c1` (single isomer, unassigned) [Example 36, (+)-3-[1-(4-fluorophenyl)ethyl]-5-{(E)-2-[3-methoxy-4-(4-methyl-1H-imidazol-1-yl)phenyl]vinyl}-4H-[1,2,4]triazole], `COc1cc(/C=C/c2nnc(Cc3ccc(F)cc3)[nH]2)ccc1-n1cnc(C)c1` [Example 17, 3-(4-fluorobenzyl)-5-{(E)-2-[3-methoxy-4-(4-methyl-1H-imidazol-1-yl)phenyl]vinyl}-4H-[1,2,4]triazole] is 1.7-fold higher in IC50: 34 nM for the first, 58 nM for the second. The first is the more potent here.

Compared with `COC(=O)c1[nH]c(/C=C/c2ccc(-n3cnc(C)c3)c(OC)c2)nc1-c1ccc(F)cc1` [Example 6, methyl 5-(4-fluorophenyl)-2-{(E)-2-[3-methoxy-4-(4-methyl-1H-imidazol-1-yl)phenyl]vinyl}-1H-imidazole-4-carboxylate], `COC(=O)c1c(-c2ccc(F)cc2)nc2n1CCC/C2=C\c1ccc(-n2cnc(C)c2)c(OC)c1` [Example 22, methyl 2-(4-fluorophenyl)-8-{1-[3-methoxy-4-(4-methyl-1H-imidazol-1-yl)phenyl]-(E)-methylidene}-5,6,7,8-tetrahydroimidazo[1,2-a]pyridine-3-carboxylate] is 2.8-fold higher in IC50: 60 nM for the first, 170 nM for the second. The first is the more potent here.

`COc1cc(/C=C/c2nc3n(n2)CCCC3(O)c2cc(F)c(F)c(F)c2)ccc1-n1cnc(C)c1` (single isomer, unassigned) [Example 66, (−)-2-{(E)-2-[3-methoxy-4-(4-methyl-1H-imidazol-1-yl)phenyl]vinyl}-8-(3,4,5-trifluorophenyl)-5,6,7,8-tetrahydro[1,2,4]triazolo[1,5-a]pyridin-8-ol] was tested, and the IC50 was 20 nM.
